Measured values as given in patent US20250304538A1, “PROCESS OF PREPARING REMIBRUTINIB SUBSTANTIALLY FREE OF NITROSAMINE IMPURITY” (NOVARTIS AG, priority 2024, published 2025).
Entries after “also recorded” stand apart in the source; their conditions may differ.

Experiments:
[1] = Stability of intermediate F8: nitrosamine content overtime (air exposure, storage); format: physicochemical; conditions: upon exposure to the air or upon storage
Description: • Limit-test by LC-MS (SIM mode), AJS-ES, positive mode, SIM Ion: 483.2 [M+H]+ • Column: YMC-Triart C18, 100×3.0 mm, particle size 1.9 μm, 12 nm • Mobile phase A: Dissolve 0.315 g of Ammonium formate in 1000 mL of water, add 0.5 mL of formic acid • Mobile phase B: Methanol • Sample solvent: Methanol+0.2% (v/v) Formic acid • Sample solution: approx. 100 mg of the sample in 20 mL • Flow: 0.6 mL/min • Injection volume: 3 μL • Autosampler cooled, 8° C. • Column temperature. 80° C.
Same method was used to determine the level of nitrosamine content in intermediate F8, in salts or in solvate of LOU064.
The content of nitrosamine in intermediate F8 was determined using method described in Example 1.

[2] = APS of LOU064 drug substance, closed container with or without nitrogen purge; format: physicochemical; conditions: 60-80 °C, up to 27 days
Description: Samples of batches of LOU064 drug substance were prepared in duplicated in closed container, with one sample being purged with nitrogen and the other not.
(§1) The pulled samples were analyzed by HPLC-MS as per method described in example 1 and reported below in tables 9 and 10.

[3] = Accelerated predictive stability (APS) of LOU064 drug substance, open dish; format: physicochemical; conditions: all APS open dish conditions
Description: In order to assess the stability behavior of the nitrosamine impurity (N-(3-(6-amino-5-(2(methyl)(nitroso)amino)ethoxy)pyrimidin-4-yl)-5-fluoro-2-methylphenyl)-4-cyclopropyl-2-fluorobenzamide) in LOU064 drug substance, an accelerated predictive stability (APS) was performed.
A statistical based approach, Accelerated Predictive Stability (APS), using the humidity modified Arrhenius equation [Waterman and al., International Journal of Pharmaceutics 293 (1-2), 101-125 (2005)] is applied to understand stability behavior and predict the retest period. […] Short studies are conducted on open dish samples of representative batch (es) of drug substance at accelerated conditions using a wide range of temperatures and humidity with the goal of reaching the specification limit for the identified retest period limiting attributes at each condition as detailed below. […] The humidity corrected Arrhenius equation reflects both the influence of the temperature, and the moisture on the kinetics of the degradation product formation. The resulting open-dish data are fitted to a humidity-corrected Arrhenius equation^1 using ASAPprime® (current version 6.0): […]
3 batches of LOU064 drug substance were placed in open dish under the protocol summarized below:
as §1

[4] = system: Salmonella typhimurium strains TA98, TA100, TA1535 and TA1537; test: Enhanced Ames Test (EAT), pre-incubation method, Salmonella strains; format: cell-based
Description: N-(3-(6-amino-5-(2(methyl)(nitroso)amino)ethoxy)pyrimidin-4-yl)-5-fluoro-2-methylphenyl)-4-cyclopropyl-2-fluorobenzamide was evaluated in the EAT performed under GLP following the EMA and FDA guidance (2023) for the EAT conditions for N-nitrosamines.
In this study N-(3-(6-amino-5-(2(methyl)(nitroso)amino)ethoxy)pyrimidin-4-yl)-5-fluoro-2-methylphenyl)-4-cyclopropyl-2-fluorobenzamide was evaluated for mutations in Salmonella typhimurium strains TA98, TA100, TA1535 and TA1537 and Escherichia coli strain WP2 uvrA pKM101, both in the absence and presence of 30% rat and hamster metabolic activation (β-naphthoflavone/phenobarbital-induced rat and hamster liver post-mitochondrial S-9 fraction). The test used pre-incubation method (30 minutes). N-(3-(6-amino-5-(2(methyl)(nitroso)amino)ethoxy)pyrimidin-4-yl)-5-fluoro-2-methylphenyl)-4-cyclopropyl-2-fluorobenzamide was formulated in dimethyl sulfoxide (DMSO) at concentrations of 5, 16, 50, 160, 500, 1600 and 5000 μg/plate.

## CNCCOc1c(N)ncnc1-c1cc(F)cc(NC(=O)c2ccc(C3CC3)cc2F)c1C [F8]
[1]
  content of nitrosamine in intermediate F8 (trend): increased overtime

## C=CC(=O)N(C)CCOc1c(N)ncnc1-c1cc(F)cc(NC(=O)c2ccc(C3CC3)cc2F)c1C [LOU064 drug substance, N-(3-(6-Amino-5-(2-(N-methylacrylamido)ethoxy)pyrimidin-4-yl)-5-fluoro-2-methylphenyl)-4-cyclopropyl-2-fluorobenzamide]
[2]
  nitrosamine, stored closed under nitrogen versus closed without nitrogen (in words): no difference observed beyond analytical variability
[3]
  stability behavior of the nitrosamine impurity (in words): stable

## CN(CCc1ccccc1)N=O [MNPA, N-methyl-N-nitroso-(2-phenylethyl)amine, reference compound]
[4]; strain TA98, presence of hamster S-9
  Increases (mutations): up to 1.9

## Cc1c(NC(=O)c2ccc(C3CC3)cc2F)cc(F)cc1-c1ncnc(N)c1OCCN(C)N=O [N-(3-(6-amino-5-(2(methyl)(nitroso)amino)ethoxy)pyrimidin-4-yl)-5-fluoro-2-methylphenyl)-4-cyclopropyl-2-fluorobenzamide]
[4]; in the presence of rat S-9
  mutagenicity: not mutagenic
[4]; overall conclusion of the EAT
  Enhanced Ames Test (EAT) outcome: positive; also recorded: mutagenic under sensitive metabolic conditions
[4]; strain TA100, presence of hamster S-9
  increases in revertant numbers: 2 fold
[4]; strain TA1535, presence of hamster S-9
  increases in revertant numbers: 3 fold
[4]; without metabolic activation
  mutagenicity: not mutagenic

## CCN(CC)N=O [NDEA, N-nitrosodiethylamine, reference compound]
[4]; strain TA100, presence of 30% rat S-9
  induced mutations: > 2 fold
